Literature values, collected in patent publication US20190135859A1, “METHOD OF MANUFACTURING A PHARMACEUTICAL COMPOSITION” (FERRING B.V., priority 2017, published 2019).
Starred links: 1 amine or outer side, 2 acyl side, 3 side chain; linkers in the order of their positions; H or OH if unused. Positions of bridges follow the written chain, without caps; N, C: chain ends. Residues, ends and D or L forms follow the SMILES beside them. X1 = O=C(CCC[*:2])[*:1]

What was measured:
[1] = system: Prader-Willi Syndrome patients; conditions: after 15 days, versus placebo treated patients, as described in WO2016/044131
[2] = system: human oxytocin (hOT) receptor versus human V2 (hV2) receptor; conditions: ratio of EC50 values; see Table 2 in WO2009/122285

Compound | improvement over placebo in measurements of hyperphagia, obsessive compulsive disorder, food seeking behaviour and clinical global impression [1] | hV2/hOT selectivity ratio (EC50 hV2/EC50 hOT) [2]
CC[C@H](C)[C@@H]1NC(=O)[C@H](Cc2ccc(OC)cc2)NC(=O)CCCSC[C@@H](C(=O)N2CCC[C@H]2C(=O)N[C@@H](CC(C)C)C(=O)NCC(N)=O)NC(=O)[C@H](CC(N)=O)NC(=O)[C@H](CCC(N)=O)NC1=O [carbetocin, (1-desamino-1-monocarba-2(O-methyl)-tyrosine)oxytocin] (Y(Me)IQNCPLG-NH2; linker N-5 via X1) | statistically significant improvement | 244
CC[C@H](C)[C@@H]1NC(=O)[C@H](Cc2ccc(O)cc2)NC(=O)[C@@H](N)CSSC[C@@H](C(=O)N2CCC[C@H]2C(=O)N[C@@H](CC(C)C)C(=O)NCC(N)=O)NC(=O)[C@H](CC(N)=O)NC(=O)[C@H](CCC(N)=O)NC1=O [Oxytocin, oxytocin] |  | 3
